According to PubChem BioAssay AID248 (DTP/NCI, 2004):
Several values for one entry are separate records, joined by “and”; a condition that tells them apart may be missing. Equal entries are not always repeated. Inconclusive results and toxic doses are left out.

System: L1210 leukemia ip in BDF1 mice, survival T/C
Assay: NCI In Vivo Anticancer Drug Screen. Data for tumor model L1210 Leukemia (intraperitoneal) in B6D2F1 (BDF1) mice
Conditions: endpoint: mean survival time, higher = longer survival
Method in brief: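 In this screen, tumor-bearing mice given compound are compared to those given vehicle, and their survival values are reported as a treated-to-control quotient.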

[1] = dose: 100.0 mg/kg/injection, schedule: Q01DX009 (ip), vehicle: Klucel (hydroxypropylcellulose) (HPC)
[2] = dose: 400.0 mg/kg/injection, schedule: Q01DX001 (ip), vehicle: saline

SMILES: CC1CN1c1cc(O)c(N2CC2C)cc1O (stereo not drawn)
- T/C (dose: 0.25 mg/kg/injection, schedule: Q01DX009 (ip), vehicle: saline): 100 % of control
- T/C (dose: 0.5 mg/kg/injection, schedule: Q01DX009 (ip), vehicle: saline): 92 % of control
- T/C (dose: 0.5 mg/kg/injection, schedule: Q01DX Z (ip), vehicle: methylcellulose (MC)): 110 % of control
- T/C (dose: 0.8 mg/kg/injection, schedule: Q01DX Z (ip), vehicle: methylcellulose (MC)): 111 % of control
- T/C (dose: 1.0 mg/kg/injection, schedule: Q01DX009 (ip), vehicle: saline): 118 % of control
- T/C (dose: 1.2 mg/kg/injection, schedule: Q01DX Z (ip), vehicle: carboxymethylcellulose (CMC)): 115 % of control
- T/C (dose: 1.2 mg/kg/injection, schedule: Q01DX Z (ip), vehicle: methylcellulose (MC)): 109 % of control and 123 % of control
- T/C (dose: 1.8 mg/kg/injection, schedule: Q01DX Z (ip), vehicle: carboxymethylcellulose (CMC)): 121 % of control
- T/C (dose: 2.0 mg/kg/injection, schedule: Q01DX009 (ip), vehicle: saline): 118 % of control
- T/C (dose: 2.7 mg/kg/injection, schedule: Q01DX Z (ip), vehicle: methylcellulose (MC)): 171 % of control
- T/C (dose: 4.0 mg/kg/injection, schedule: Q01DX Z (ip), vehicle: carboxymethylcellulose (CMC)): 120 % of control
- T/C (dose: 4.0 mg/kg/injection, schedule: Q01DX Z (ip), vehicle: methylcellulose (MC)): 109 % of control and 155 % of control and 212 % of control
- T/C (dose: 5.0 mg/kg/injection, schedule: Q01DX009 (ip), vehicle: saline): 150 % of control
- T/C (dose: 6.0 mg/kg/injection, schedule: Q01DX Z (ip), vehicle: carboxymethylcellulose (CMC)): 108 % of control
- T/C (dose: 6.0 mg/kg/injection, schedule: Q01DX Z (ip), vehicle: methylcellulose (MC)): 172 % of control and 180 % of control
- T/C (dose: 9.0 mg/kg/injection, schedule: Q01DX Z (ip), vehicle: methylcellulose (MC)): 155 % of control and 174 % of control
- T/C (dose: 10.0 mg/kg/injection, schedule: Q01DX009 (ip), vehicle: saline): 121 % of control
- T/C (dose: 13.5 mg/kg/injection, schedule: Q01DX Z (ip), vehicle: methylcellulose (MC)): 114 % of control
- T/C (dose: 20.0 mg/kg/injection, schedule: Q01DX009 (ip), vehicle: saline): 101 % of control
- T/C (dose: 20.0 mg/kg/injection, schedule: Q01DX Z (ip), vehicle: methylcellulose (MC)): 90 % of control

SMILES: CN(C)/C=N/n1cnc2c(ncn2C2OC(CO)C(O)C2O)c1=O (stereo not drawn)
- T/C (dose: 100.0 mg/kg/injection, schedule: Q01DX003 (ip), vehicle: saline): 102 % of control
- T/C (dose: 200.0 mg/kg/injection, schedule: Q01DX003 (ip), vehicle: saline): 94 % of control

SMILES: CN(C)c1ccc(/C=N/NC(=O)CNC(=O)c2ccc(Cl)c(Cl)c2)cc1
- T/C (dose: 50.0 mg/kg/injection, schedule: Q01DX009 (ip), vehicle: saline with Tween-80): 86 % of control
- T/C (dose: 100.0 mg/kg/injection, schedule: Q01DX009 (ip), vehicle: saline with Tween-80): 94 % of control
- T/C (dose: 200.0 mg/kg/injection, schedule: Q01DX009 (ip), vehicle: saline with Tween-80): 88 % of control

SMILES: O=C(c1ccccc1)C(Br)C(Br)C(=O)c1ccccc1 (stereo not drawn)
- T/C (dose: 100.0 mg/kg/injection, schedule: Q01DX001 (ip), vehicle: carboxymethylcellulose (CMC)): 107 % of control
- T/C [1]: 93 % of control
- T/C (dose: 100.0 mg/kg/injection, schedule: Q04DX003 (ip), vehicle: Klucel (hydroxypropylcellulose) (HPC)): 91 % of control
- T/C (dose: 200.0 mg/kg/injection, schedule: Q01DX001 (ip), vehicle: carboxymethylcellulose (CMC)): 96 % of control
- T/C (dose: 200.0 mg/kg/injection, schedule: Q01DX009 (ip), vehicle: Klucel (hydroxypropylcellulose) (HPC)): 101 % of control
- T/C (dose: 200.0 mg/kg/injection, schedule: Q04DX003 (ip), vehicle: Klucel (hydroxypropylcellulose) (HPC)): 88 % of control
- T/C (dose: 400.0 mg/kg/injection, schedule: Q01DX001 (ip), vehicle: carboxymethylcellulose (CMC)): 107 % of control
- T/C (dose: 400.0 mg/kg/injection, schedule: Q01DX009 (ip), vehicle: Klucel (hydroxypropylcellulose) (HPC)): 91 % of control
- T/C (dose: 400.0 mg/kg/injection, schedule: Q04DX003 (ip), vehicle: Klucel (hydroxypropylcellulose) (HPC)): 90 % of control

SMILES: CCN(C)CCC(CN)(CCN(C)CC)c1cccc2ccccc12
- T/C (dose: 12.5 mg/kg/injection, schedule: Q04DX003 (ip), vehicle: saline): 93 % of control
- T/C (dose: 25.0 mg/kg/injection, schedule: Q04DX003 (ip), vehicle: saline): 101 % of control
- T/C (dose: 50.0 mg/kg/injection, schedule: Q04DX003 (ip), vehicle: saline): 93 % of control

SMILES: CCN(CC)Cc1ccc([N+](=O)[O-])cc1
- T/C (dose: 100.0 mg/kg/injection, schedule: Q04DX002 (ip), vehicle: saline): 110 % of control
- T/C (dose: 200.0 mg/kg/injection, schedule: Q04DX002 (ip), vehicle: saline): 104 % of control

SMILES: COc1cc(C(=O)Nc2ccc(C3=NCCN3)cc2)cc(C(=O)Nc2ccc(C3=NCCN3)cc2)c1
- T/C (dose: 30.0 mg/kg/injection, schedule: Q01DX Z (ip), vehicle: saline): 211 % of control
- T/C (dose: 60.0 mg/kg/injection, schedule: Q01DX Z (ip), vehicle: saline): 275 % of control
- T/C (dose: 60.0 mg/kg/injection, schedule: Q01DX Z (oral), vehicle: saline): 114 % of control
- T/C (dose: 120.0 mg/kg/injection, schedule: Q01DX Z (ip), vehicle: saline): 151 % of control
- T/C (dose: 120.0 mg/kg/injection, schedule: Q01DX Z (oral), vehicle: saline): 119 % of control
- T/C (dose: 240.0 mg/kg/injection, schedule: Q01DX Z (oral), vehicle: saline): 101 % of control
- T/C (dose: 480.0 mg/kg/injection, schedule: Q01DX Z (oral), vehicle: saline): 100 % of control

SMILES: OCn1c(O)c2ccccc2c1N=Nc1ccccc1
- T/C (dose: 100.0 mg/kg/injection, schedule: Q01DX001 (ip), vehicle: saline): 95 % of control
- T/C (dose: 200.0 mg/kg/injection, schedule: Q01DX001 (ip), vehicle: saline): 95 % of control
- T/C [2]: 95 % of control

SMILES: O=C(Cn1ccc(O)cc1=O)N1CCC2(CC1)SSC1(CCN(C(=O)Cn3ccc(O)cc3=O)CC1)S2
- T/C (dose: 100.0 mg/kg/injection, schedule: Q01DX009 (ip), vehicle: saline): 86 % of control
- T/C (dose: 100.0 mg/kg/injection, schedule: Q04DX003 (ip), vehicle: saline): 102 % of control
- T/C (dose: 200.0 mg/kg/injection, schedule: Q01DX009 (ip), vehicle: saline): 93 % of control
- T/C (dose: 200.0 mg/kg/injection, schedule: Q04DX003 (ip), vehicle: saline): 94 % of control
- T/C (dose: 400.0 mg/kg/injection, schedule: Q01DX009 (ip), vehicle: saline): 94 % of control
- T/C (dose: 400.0 mg/kg/injection, schedule: Q04DX003 (ip), vehicle: saline): 88 % of control

SMILES: CC1C/C(=C\NC(N)=O)C(=O)O1 (stereo not drawn)
- T/C (dose: 100.0 mg/kg/injection, schedule: Q01DX009 (ip), vehicle: water): 96 % of control
- T/C (dose: 100.0 mg/kg/injection, schedule: Q04DX003 (ip), vehicle: water): 94 % of control
- T/C (dose: 200.0 mg/kg/injection, schedule: Q01DX009 (ip), vehicle: water): 100 % of control
- T/C (dose: 200.0 mg/kg/injection, schedule: Q04DX003 (ip), vehicle: water): 89 % of control
- T/C (dose: 400.0 mg/kg/injection, schedule: Q01DX009 (ip), vehicle: water): 102 % of control
- T/C (dose: 400.0 mg/kg/injection, schedule: Q04DX003 (ip), vehicle: water): 96 % of control

SMILES: O=C(O)COc1ccc(F)c(F)c1
- T/C (dose: 100.0 mg/kg/injection, schedule: Q04DX002 (ip), vehicle: Klucel (hydroxypropylcellulose) (HPC)): 90 % of control
- T/C (dose: 200.0 mg/kg/injection, schedule: Q04DX002 (ip), vehicle: Klucel (hydroxypropylcellulose) (HPC)): 104 % of control
- T/C (dose: 400.0 mg/kg/injection, schedule: Q04DX002 (ip), vehicle: Klucel (hydroxypropylcellulose) (HPC)): 93 % of control

SMILES: CCCCCCCCCCCCCCCCCC(=O)NCC#CCN1CCCC1
- T/C (dose: 5.0 mg/kg/injection, schedule: Q01DX001 (ip), vehicle: saline): 97 % of control
- T/C (dose: 10.0 mg/kg/injection, schedule: Q01DX001 (ip), vehicle: saline): 94 % of control
- T/C (dose: 20.0 mg/kg/injection, schedule: Q01DX001 (ip), vehicle: saline): 100 % of control
- T/C (dose: 25.0 mg/kg/injection, schedule: Q01DX009 (ip), vehicle: Klucel (hydroxypropylcellulose) (HPC)): 96 % of control
- T/C (dose: 40.0 mg/kg/injection, schedule: Q01DX001 (ip), vehicle: saline): 105 % of control
- T/C (dose: 50.0 mg/kg/injection, schedule: Q01DX009 (ip), vehicle: Klucel (hydroxypropylcellulose) (HPC)): 95 % of control
- T/C (dose: 80.0 mg/kg/injection, schedule: Q01DX001 (ip), vehicle: saline): 94 % of control
- T/C [1]: 90 % of control
- T/C [2]: 104 % of control
